Experimental data as given in patent publication US20030139469A1, “Use of inhibitors of soluble epoxide hydrolase to inhibit vascular smooth muscle cell proliferation” (THE REGENTS OF THE UNIVERSITY OF CALIFORNIA, priority 2002, published 2003).

Experiments:
human VSM cells = assay: [3H]thymidine incorporation into DNA, human VSM cells; format: cell-based; conditions: for inhibition of DNA synthesis ([3H]thymidine incorporation): CDU 1.0 to 20 μM
Procedure: Human VSM cells were grown to 80-90% confluence and serum-starved (except where indicated) for 1 day.
FIG. 1a. Immediately following PDGF-BB (30 ng/ml) stimulation, CDU or DMSO vehicle (as a control, indicated on chart as “cont”) was added at the concentrations indicated. After 18 h, thymidine incorporation into DNA was assessed as described in Example 1.
FIG. 1b. Human VSM cells grown and challenged as in FIG. 1a, but the cells were stimulated with 10% serum rather than with PDGF-BB.
Human VSM cells were grown to 80-90% confluence and serum-starved as in FIG. 1. PDGF-BB (30 ng/ml) was added to all but control wells, followed immediately by the addition of mixed EETs and/or CDU at the concentrations indicated of total EETs. [^3H]Thymidine was added for the last 6 h of incubation, and its incorporation into DNA was assessed as described in Materials and Methods. Error bars represent SD; *p<0.05 compared to PDGF alone. Data shown are representative of two independent experiments.
Human VSM cells were grown to 80-90% confluence and serum-starved as in FIG. 1. PDGF-BB (30 ng/ml) was added to all but control wells and, at the times indicated after PDGF addition, CDU (10 μM) was added. At time=0, CDU and PDGF were added simultaneously. [^3H]Thymidine was added for the last 6 h of incubation and its incorporation into DNA was assessed as described in Example 1. Error bars represent SD; *p<0.05 compared to PDGF alone. Data shown are representative of three independent experiments.
Cell Culture. Human aortic smooth muscle cells were obtained from Clonetics (San Diego Calif.) at passage 3 and were maintained in MCBD 131 media supplemented with 2.5% FBS, 5 mg/L bovine insulin, 2 ug/L human recombinant EGF, 1 ug/L human recombinant PDGF-BB (“PDGF” is platelet derived growth factor, which is composed of a dimer of two chains, the A chain and the B chain, “PDGF-BB is a 24.3 kD homodimer of two B chains), 100 u/ml of penicillin, 100 u/ml streptomycin, and 2.5 ug/ml amphotericin B. The cells were growth-arrested by placing them in quiescence medium containing MCDB 131 medium, 20 mM HEPES (pH 7.4), 5 mg/ml transferrin, 0.5 mg/ml BSA, 50 U/ml penicillin, 50 U/ml streptomycin, and 2.5 ug/ml amphotericin B. Quiescence medium was changed daily for 1-2 days before each experiment. HL-60 cells were obtained from ATCC or from D. Hyde (UC Davis). HL-60 cells were cultured at cell densities between 2×10^5 and 8×10^5 cells/mL in RPMI-1640 (Mediatech) supplemented with 10% fetal calf serum.
Proliferation Assays. [^3H]thymidine incorporation assays were performed. […] At the indicated times, the number of cells in the plate was calculated by subjecting the cells to trypsinization and the cell density quantitated by light microscopy using a hemocytometer.

[1] = tested on: human foreskin fibroblasts; assay: [3H]thymidine incorporation, human foreskin fibroblasts; format: cell-based; conditions: PDGF-BB stimulated, similar concentrations to VSM cells, FIG. 1d
Procedure: FIG. 1d. Human foreskin fibroblasts were treated similarly to VSM cells in FIG. 1a and [^3H]thymidine incorporation into DNA was assessed.

VSM cells = assay: thymidine uptake into VSM cells; format: cell-based, human; conditions: 12 μM CDU vs DMSO vehicle, seconds to minutes, FIG. 1e
Procedure: FIG. 1e. CDU at the indicated concentrations was added to non-serum-starved cells and uptake of thymidine into the cells was assessed at the indicated times after its addition as described in Example 1. Error bars represent SD; *p<0.05 compared to (for FIGS. 1a and 1d) PDGF alone or (for FIG. 1b) serum alone or (for FIG. 1e) DMSO. Data shown are representative of at least two independent experiments.
Thymidine Uptake. To quantify thymidine uptake, 1.73×10^4 cells were distributed per well in a 24-well plate. […] The media was then adjusted to […] ^3H-methyl-thymidine (1 mCi/mL, 25 Ci/mmol, Amersham-Pharmacia). At the indicated times, medium was aspirated, the cells were washed three times with ice-cold PBS, and then incubated in 500 μL 1 M NaOH for 20 min. The mixture was neutralized with 0.5 mL 1 M HCl and diluted into scintillation fluid for liquid scintillation counting.

Met-1 breast tumor cells = assay: Met-1 breast tumor cell proliferation; format: cell-based; conditions: up to 20 μM
A549 lung cancer cells = assay: MTT assay A549; format: cell-based; conditions: up to 40 μM
HT-29 colon cancer cells = assay: MTT assay HT-29; format: cell-based; conditions: up to 40 μM
[2] = tested on: LnCap prostate cancer cells; assay: MTT assay LnCap; format: cell-based; conditions: up to 40 μM
cyclin D1 = assay: Western blot cyclin D1 in VSM cells; format: cell-based, human; conditions: 10 μM, PDGF-BB, 6 to 18 h, vs DMSO vehicle, FIG. 7
Procedure: (§1) Human VSM cells were grown to 80-90% confluence and serum-starved as in FIG. 1. […] Data shown are representative of at least two independent experiments. Western Blots. After treatment with appropriate compounds for the indicated times, cells were lysed, protein concentrations were determined by the Lowry method, and equal protein quantities were electrophoresed and Western blotted.

cyclin E = assay: Western blot cyclin E in VSM cells; format: cell-based, human; conditions: 10 μM, PDGF-BB, 6 to 18 h, FIG. 7
Procedure: as §1

Question: Which results are given for `CCCCCCCCCCCCNC(=O)NC1CCCCC1` [CDU, 1-cyclohexyl-3-dodecyl urea]?
Answer: time of CDU addition after PDGF with most profound inhibition (human VSM cells; 10 μM CDU, PDGF-BB 30 ng/ml, FIG. 5): 4 h; inhibition of DNA synthesis ([3H]thymidine incorporation) (human VSM cells; 10% serum stimulated, FIG. 1b): dose-dependent inhibition of DNA synthesis; inhibition of DNA synthesis ([3H]thymidine incorporation) (human VSM cells; PDGF-BB (30 ng/ml) stimulated, 18 h, FIG. 1a): dose-dependent inhibition of DNA synthesis; PDGF-stimulated [3H]thymidine incorporation (human VSM cells; PDGF-BB, EETs 5 to 10 μM total, CDU 2.5 and 10 μM, separately or together, FIG. 3): inhibition of PDGF-stimulated [^3H]thymidine incorporation; [3H]thymidine incorporation [1]: inhibited; cellular uptake of thymidine (VSM cells): occurs to a similar extent; effect on Met-1 cells (Met-1 breast tumor cells): lack of effect; toxicity, MTT assay (A549 lung cancer cells): no toxicity observed; toxicity, MTT assay (HT-29 colon cancer cells): no toxicity observed; toxicity, MTT assay [2]: no toxicity observed; induction of cyclin D1 levels (cyclin D1): profoundly decreased induction; effect on cyclin E levels (cyclin E): minimal effect
